Measurements as given in ChEMBL document CHEMBL4507265 (2021).

Tests used:
[1] = target: Interferon-induced, double-stranded RNA-activated protein kinase (Homo sapiens) (UniProt P19525); settings: Compound concentration 1000.0 nM
[2] = target: Fibroblast growth factor receptor 2 (Homo sapiens) (UniProt P21802); settings: Compound concentration 1000.0 nM
[3] = target: Serine/threonine-protein kinase Chk1 (Homo sapiens) (UniProt O14757); settings: Compound concentration 1000.0 nM
[4] = target: T1, Alpha-1A adrenergic receptor (Homo sapiens) (UniProt P35348); settings: Compound concentration 10.0 uM
T1 sequence (whole entry): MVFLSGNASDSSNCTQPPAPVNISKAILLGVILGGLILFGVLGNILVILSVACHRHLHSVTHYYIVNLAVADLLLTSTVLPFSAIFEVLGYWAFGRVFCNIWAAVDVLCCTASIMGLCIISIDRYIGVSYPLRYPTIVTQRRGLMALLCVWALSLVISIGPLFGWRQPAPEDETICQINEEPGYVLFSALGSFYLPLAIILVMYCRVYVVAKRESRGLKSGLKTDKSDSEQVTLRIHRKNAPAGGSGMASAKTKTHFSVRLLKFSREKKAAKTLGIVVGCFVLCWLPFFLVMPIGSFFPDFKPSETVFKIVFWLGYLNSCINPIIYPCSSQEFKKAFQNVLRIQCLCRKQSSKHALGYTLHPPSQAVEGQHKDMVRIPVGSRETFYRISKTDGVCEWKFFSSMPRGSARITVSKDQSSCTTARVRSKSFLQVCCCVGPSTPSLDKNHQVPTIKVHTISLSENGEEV

[5] = target: Homeodomain-interacting protein kinase 3 (Homo sapiens) (UniProt Q9H422); settings: Compound concentration 1000.0 nM
[6] = target: BMP-2-inducible protein kinase (Homo sapiens) (UniProt Q9NSY1); settings: Compound concentration 1000.0 nM
[7] = target: Ribosomal protein S6 kinase alpha-1 (Homo sapiens) (UniProt Q15418); settings: Compound concentration 1000.0 nM
[8] = system: Epidermal growth factor receptor (Homo sapiens), P00533 [L861Q]; settings: Compound concentration 1000.0 nM
[9] = target: Ephrin type-B receptor 6 (Homo sapiens) (UniProt O15197); settings: Compound concentration 1000.0 nM
[10] = target: Alpha-2C adrenergic receptor (Homo sapiens) (UniProt P18825); settings: Compound concentration 10.0 uM
[11] = target: Calcium/calmodulin-dependent protein kinase type 1B (Homo sapiens) (UniProt Q6P2M8); settings: Compound concentration 1000.0 nM
[12] = system: Leucine-rich repeat serine/threonine-protein kinase 2 (Homo sapiens), Q5S007 [G2019S]; settings: Compound concentration 1000.0 nM
[13] = target: Hepatocyte growth factor receptor (Homo sapiens) (UniProt P08581); settings: Compound concentration 1000.0 nM
[14] = target: Cyclin-dependent kinase 16 (Homo sapiens) (UniProt Q00536); settings: Compound concentration 1000.0 nM
[15] = system: Phosphatidylinositol 4,5-bisphosphate 3-kinase catalytic subunit alpha isoform (Homo sapiens), P42336 [E545K]; settings: Compound concentration 1000.0 nM
[16] = target: Angiopoietin-1 receptor (Homo sapiens) (UniProt Q02763); settings: Compound concentration 1000.0 nM
[17] = target: cAMP-dependent protein kinase catalytic subunit alpha (Homo sapiens) (UniProt P17612); settings: Compound concentration 1000.0 nM
[18] = target: Mitogen-activated protein kinase kinase kinase kinase 4 (Homo sapiens) (UniProt O95819); settings: Compound concentration 1000.0 nM
[19] = target: Mast/stem cell growth factor receptor Kit (Homo sapiens) (UniProt P10721); settings: Compound concentration 1000.0 nM
[20] = target: Mitogen-activated protein kinase 10 (Homo sapiens) (UniProt P53779); settings: Compound concentration 1000.0 nM
[21] = target: Bone morphogenetic protein receptor type-1B (Homo sapiens) (UniProt O00238); settings: Compound concentration 1000.0 nM
[22] = target: RAC-alpha serine/threonine-protein kinase (Homo sapiens) (UniProt P31749); settings: Compound concentration 1000.0 nM
[23] = target: Serine/threonine-protein kinase ULK3 (Homo sapiens) (UniProt Q6PHR2); settings: Compound concentration 1000.0 nM
[24] = target: Casein kinase I isoform delta (Homo sapiens) (UniProt P48730); settings: Compound concentration 1000.0 nM
[25] = target: 5-hydroxytryptamine receptor 1D (Homo sapiens) (UniProt P28221); settings: Compound concentration 10.0 uM
[26] = system: Tyrosine-protein kinase ABL1 (Homo sapiens), P00519 [F317L]; settings: Compound concentration 1000.0 nM
[27] = target: Ribosomal protein S6 kinase alpha-5 (Homo sapiens) (UniProt O75582); settings: Compound concentration 1000.0 nM
[28] = target: Receptor tyrosine-protein kinase erbB-3 (Homo sapiens) (UniProt P21860); settings: Compound concentration 1000.0 nM
[29] = target: Tyrosine-protein kinase BTK (Homo sapiens) (UniProt Q06187); settings: Compound concentration 1000.0 nM
[30] = target: 5-hydroxytryptamine receptor 6 (Homo sapiens) (UniProt P50406); settings: Compound concentration 10.0 uM
[31] = target: Sigma intracellular receptor 2 (Homo sapiens, UniProt Q5BJF2); assay: GPCRScan assay: inhibition of Sigma 2; parameters: radioligand conc. used [nm] 5.0, parental cells HEKT
[32] = target: Serine/threonine-protein kinase SIK2 (Homo sapiens) (UniProt Q9H0K1); settings: Compound concentration 1000.0 nM
[33] = target: Serine/threonine-protein kinase PAK 6 (Homo sapiens) (UniProt Q9NQU5); settings: Compound concentration 1000.0 nM
[34] = target: Vascular endothelial growth factor receptor 2 (Homo sapiens) (UniProt P35968); settings: Compound concentration 1000.0 nM
[35] = target: Serine/threonine-protein kinase TAO1 (Homo sapiens) (UniProt Q7L7X3); settings: Compound concentration 1000.0 nM
[36] = target: Ephrin type-B receptor 2 (Homo sapiens) (UniProt P29323); settings: Compound concentration 1000.0 nM
[37] = target: cGMP-dependent protein kinase 2 (Homo sapiens) (UniProt Q13237); settings: Compound concentration 1000.0 nM
[38] = target: MAP kinase-interacting serine/threonine-protein kinase 1 (Homo sapiens) (UniProt Q9BUB5); settings: Compound concentration 1000.0 nM
[39] = target: MAP kinase-interacting serine/threonine-protein kinase 2 (Homo sapiens) (UniProt Q9HBH9); settings: Compound concentration 1000.0 nM

Sequence of Sigma intracellular receptor 2 (Q5BJF2 whole entry): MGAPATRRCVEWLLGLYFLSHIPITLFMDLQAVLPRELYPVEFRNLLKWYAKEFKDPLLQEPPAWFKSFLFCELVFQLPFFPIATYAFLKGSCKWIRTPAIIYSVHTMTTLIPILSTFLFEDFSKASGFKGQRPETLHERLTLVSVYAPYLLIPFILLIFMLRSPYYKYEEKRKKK
Sequence of Ephrin type-B receptor 6 (Homo sapiens) (O15197 whole entry): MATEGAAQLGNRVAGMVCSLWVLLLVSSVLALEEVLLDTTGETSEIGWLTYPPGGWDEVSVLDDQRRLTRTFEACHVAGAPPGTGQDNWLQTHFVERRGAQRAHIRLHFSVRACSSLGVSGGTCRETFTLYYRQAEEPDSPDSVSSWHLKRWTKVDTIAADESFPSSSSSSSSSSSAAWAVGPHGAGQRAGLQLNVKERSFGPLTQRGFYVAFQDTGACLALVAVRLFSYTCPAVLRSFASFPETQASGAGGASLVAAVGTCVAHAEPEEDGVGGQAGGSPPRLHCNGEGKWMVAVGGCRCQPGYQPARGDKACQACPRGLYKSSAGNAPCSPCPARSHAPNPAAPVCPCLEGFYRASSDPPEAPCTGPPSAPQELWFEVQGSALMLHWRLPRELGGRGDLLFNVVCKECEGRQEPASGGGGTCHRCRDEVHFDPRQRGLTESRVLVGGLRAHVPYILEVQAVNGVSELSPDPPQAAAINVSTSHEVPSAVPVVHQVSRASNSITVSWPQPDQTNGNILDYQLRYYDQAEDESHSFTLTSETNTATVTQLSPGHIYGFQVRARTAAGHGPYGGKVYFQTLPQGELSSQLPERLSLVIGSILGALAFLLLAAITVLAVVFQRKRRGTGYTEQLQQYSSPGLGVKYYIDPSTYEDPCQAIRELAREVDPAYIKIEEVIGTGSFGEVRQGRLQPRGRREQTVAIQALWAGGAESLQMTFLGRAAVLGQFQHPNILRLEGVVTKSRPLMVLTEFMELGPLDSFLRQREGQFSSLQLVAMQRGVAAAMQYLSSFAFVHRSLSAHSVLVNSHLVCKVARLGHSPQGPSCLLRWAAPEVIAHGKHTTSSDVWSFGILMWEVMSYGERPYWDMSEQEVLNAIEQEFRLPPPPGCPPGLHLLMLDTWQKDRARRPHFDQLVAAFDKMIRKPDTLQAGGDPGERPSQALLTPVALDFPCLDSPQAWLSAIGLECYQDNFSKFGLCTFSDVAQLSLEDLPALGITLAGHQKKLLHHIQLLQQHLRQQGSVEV
Sequence of Alpha-2C adrenergic receptor (Homo sapiens) (P18825 whole entry): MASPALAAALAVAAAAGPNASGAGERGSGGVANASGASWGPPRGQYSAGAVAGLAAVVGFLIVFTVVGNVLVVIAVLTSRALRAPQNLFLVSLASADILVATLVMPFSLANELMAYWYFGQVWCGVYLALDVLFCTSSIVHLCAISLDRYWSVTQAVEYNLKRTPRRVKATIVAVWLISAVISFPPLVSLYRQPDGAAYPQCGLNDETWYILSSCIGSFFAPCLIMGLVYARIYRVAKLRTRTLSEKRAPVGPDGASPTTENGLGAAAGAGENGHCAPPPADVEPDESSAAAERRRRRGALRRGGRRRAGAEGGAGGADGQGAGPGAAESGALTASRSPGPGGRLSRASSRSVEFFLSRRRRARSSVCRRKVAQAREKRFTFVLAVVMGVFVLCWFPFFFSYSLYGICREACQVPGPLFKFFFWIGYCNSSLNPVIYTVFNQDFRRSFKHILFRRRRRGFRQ
Sequence of Vascular endothelial growth factor receptor 2 (Homo sapiens) (P35968 whole entry): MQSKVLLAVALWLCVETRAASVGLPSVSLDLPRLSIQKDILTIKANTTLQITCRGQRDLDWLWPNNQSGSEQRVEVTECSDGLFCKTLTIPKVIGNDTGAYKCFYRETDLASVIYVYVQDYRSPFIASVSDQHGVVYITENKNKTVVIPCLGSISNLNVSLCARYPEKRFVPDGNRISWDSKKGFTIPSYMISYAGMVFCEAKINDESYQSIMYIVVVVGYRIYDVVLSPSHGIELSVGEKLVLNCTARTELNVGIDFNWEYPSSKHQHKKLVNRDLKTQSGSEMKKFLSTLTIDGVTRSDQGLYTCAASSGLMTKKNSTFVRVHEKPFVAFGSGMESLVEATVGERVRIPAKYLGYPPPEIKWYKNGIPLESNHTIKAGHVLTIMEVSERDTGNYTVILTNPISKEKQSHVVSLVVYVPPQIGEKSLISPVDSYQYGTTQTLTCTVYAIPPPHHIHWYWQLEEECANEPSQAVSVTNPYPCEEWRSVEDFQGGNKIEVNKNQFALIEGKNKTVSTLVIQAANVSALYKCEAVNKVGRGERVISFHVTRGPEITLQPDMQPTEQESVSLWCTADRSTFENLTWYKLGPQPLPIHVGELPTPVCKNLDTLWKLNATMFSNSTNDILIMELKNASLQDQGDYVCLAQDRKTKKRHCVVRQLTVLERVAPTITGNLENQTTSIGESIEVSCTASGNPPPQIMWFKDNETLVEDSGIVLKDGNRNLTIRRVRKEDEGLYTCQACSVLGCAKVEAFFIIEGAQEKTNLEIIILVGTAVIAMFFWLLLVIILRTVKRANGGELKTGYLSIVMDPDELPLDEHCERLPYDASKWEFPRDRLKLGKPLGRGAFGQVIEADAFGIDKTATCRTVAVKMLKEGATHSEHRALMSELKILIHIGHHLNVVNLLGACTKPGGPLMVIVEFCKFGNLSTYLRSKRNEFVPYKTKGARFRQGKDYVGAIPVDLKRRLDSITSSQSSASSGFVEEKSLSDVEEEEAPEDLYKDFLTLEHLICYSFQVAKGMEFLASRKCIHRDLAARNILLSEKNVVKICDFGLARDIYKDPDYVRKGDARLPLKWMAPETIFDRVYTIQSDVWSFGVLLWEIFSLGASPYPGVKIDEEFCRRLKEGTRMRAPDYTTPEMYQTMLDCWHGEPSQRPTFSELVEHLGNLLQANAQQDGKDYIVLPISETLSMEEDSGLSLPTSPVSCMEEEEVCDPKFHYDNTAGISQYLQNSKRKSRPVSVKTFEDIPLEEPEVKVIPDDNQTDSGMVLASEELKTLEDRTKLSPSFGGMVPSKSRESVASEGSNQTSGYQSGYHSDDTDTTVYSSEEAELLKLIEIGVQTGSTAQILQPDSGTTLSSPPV
Sequence of Ribosomal protein S6 kinase alpha-5 (Homo sapiens) (O75582 whole entry, looked up): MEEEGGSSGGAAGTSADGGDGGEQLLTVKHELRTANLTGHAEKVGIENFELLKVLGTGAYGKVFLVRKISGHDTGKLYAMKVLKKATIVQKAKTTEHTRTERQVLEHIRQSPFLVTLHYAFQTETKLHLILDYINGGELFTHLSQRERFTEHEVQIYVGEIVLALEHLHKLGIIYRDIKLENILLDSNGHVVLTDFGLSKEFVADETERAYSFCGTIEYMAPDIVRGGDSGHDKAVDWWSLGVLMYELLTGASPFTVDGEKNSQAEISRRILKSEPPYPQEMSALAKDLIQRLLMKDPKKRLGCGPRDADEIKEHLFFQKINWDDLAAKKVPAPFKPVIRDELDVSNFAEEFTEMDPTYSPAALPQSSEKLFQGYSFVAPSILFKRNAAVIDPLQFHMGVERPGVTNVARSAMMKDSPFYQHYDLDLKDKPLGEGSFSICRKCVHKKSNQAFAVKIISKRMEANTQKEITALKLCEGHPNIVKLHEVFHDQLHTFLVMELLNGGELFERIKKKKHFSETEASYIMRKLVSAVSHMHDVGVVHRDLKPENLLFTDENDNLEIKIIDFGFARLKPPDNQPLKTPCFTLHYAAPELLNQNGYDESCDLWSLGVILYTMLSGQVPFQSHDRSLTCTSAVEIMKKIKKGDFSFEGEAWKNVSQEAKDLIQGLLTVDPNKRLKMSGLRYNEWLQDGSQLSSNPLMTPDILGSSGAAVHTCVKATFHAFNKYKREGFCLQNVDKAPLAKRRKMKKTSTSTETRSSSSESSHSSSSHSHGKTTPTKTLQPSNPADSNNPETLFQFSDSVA
Sequence of BMP-2-inducible protein kinase (Homo sapiens) (Q9NSY1 whole entry, looked up): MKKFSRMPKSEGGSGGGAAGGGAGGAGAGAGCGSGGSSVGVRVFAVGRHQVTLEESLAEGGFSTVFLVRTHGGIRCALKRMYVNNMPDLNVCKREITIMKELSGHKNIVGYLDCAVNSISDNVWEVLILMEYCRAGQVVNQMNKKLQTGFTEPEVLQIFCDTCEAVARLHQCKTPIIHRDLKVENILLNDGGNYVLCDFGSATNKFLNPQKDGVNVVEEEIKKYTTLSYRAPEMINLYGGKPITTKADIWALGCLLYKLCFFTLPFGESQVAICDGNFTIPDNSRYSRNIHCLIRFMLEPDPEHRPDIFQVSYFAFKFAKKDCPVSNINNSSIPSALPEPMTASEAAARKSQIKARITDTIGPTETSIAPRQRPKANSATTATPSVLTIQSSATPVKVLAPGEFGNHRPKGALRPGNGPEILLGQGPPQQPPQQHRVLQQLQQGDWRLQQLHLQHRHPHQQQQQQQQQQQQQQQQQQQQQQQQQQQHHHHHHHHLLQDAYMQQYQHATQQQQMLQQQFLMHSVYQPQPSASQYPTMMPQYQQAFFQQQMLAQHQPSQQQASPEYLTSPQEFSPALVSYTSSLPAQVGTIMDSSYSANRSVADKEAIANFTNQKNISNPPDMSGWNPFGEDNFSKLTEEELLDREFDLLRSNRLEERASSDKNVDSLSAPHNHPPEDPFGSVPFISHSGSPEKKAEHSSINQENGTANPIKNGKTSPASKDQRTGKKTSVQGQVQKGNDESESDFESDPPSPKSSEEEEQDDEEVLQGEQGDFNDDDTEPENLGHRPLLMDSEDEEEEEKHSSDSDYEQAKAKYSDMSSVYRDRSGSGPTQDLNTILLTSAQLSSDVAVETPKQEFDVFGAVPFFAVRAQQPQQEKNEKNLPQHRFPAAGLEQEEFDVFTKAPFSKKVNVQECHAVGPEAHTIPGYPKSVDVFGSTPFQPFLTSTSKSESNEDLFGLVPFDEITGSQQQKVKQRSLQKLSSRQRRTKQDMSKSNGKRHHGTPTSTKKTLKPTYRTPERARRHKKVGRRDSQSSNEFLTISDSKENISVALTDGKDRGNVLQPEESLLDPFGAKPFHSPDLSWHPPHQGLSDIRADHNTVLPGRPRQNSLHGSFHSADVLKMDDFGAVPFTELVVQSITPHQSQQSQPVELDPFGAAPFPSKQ

Row | Compound | residual activity [1] [%] | residual activity [2] [%] | residual activity [3] [%] | inhibition [4] [%] | residual activity [5] [%] | residual activity [6] [%] | residual activity [7] [%] | residual activity [8] [%] | residual activity [9] [%] | inhibition [10] [%] | residual activity [11] [%] | residual activity [12] [%] | residual activity [13] [%] | residual activity [14] [%] | residual activity [15] [%] | residual activity [16] [%] | residual activity [17] [%] | residual activity [18] [%] | residual activity [19] [%] | residual activity [20] [%] | further results
1 | NS(=O)(=O)c1cc(NC(=O)C2(c3ccccc3Cl)CC2)ccc1Oc1cccc(Cl)c1 [BAY-207] | 100 | 100 | 80 | 15.1 | 100 | 74 | 98 | 76 | 81 | 89.6 | 100 | 100 | 81 | 100 | 96 | 69 | 94 | 100 | 79 | 100 | residual activity [21]: 81%; residual activity [22]: 78%; residual activity [23]: 83%; residual activity [24]: 83%; inhibition [25]: 6.75%; residual activity [26]: 71%; residual activity [27]: 100%; residual activity [28]: 84%; residual activity [29]: 88%; inhibition [30]: -4.73%; Ki ([31]; read-out: Ki): 1.94 µM; residual activity [32]: 100%; residual activity [33]: 100%; residual activity [34]: 74%; residual activity [35]: 91%; residual activity [36]: 74%; residual activity [37]: 100%; residual activity [38]: 99%; residual activity [39]: 100%
2 | NS(=O)(=O)c1cc(NC(=O)Cc2ccccc2)ccc1Oc1cccc(Cl)c1 [BAY-1797] | 80 | 61 | 99 | 5.04 | 84 | 94 | 91 | 64 | 92 | 18.2 | 83 | 100 | 91 | 92 | 77 | 90 | 94 | 71 | 87 | 89 | residual activity [21]: 94%; residual activity [22]: 100%; residual activity [23]: 74%; residual activity [24]: 93%; inhibition [25]: 1.74%; residual activity [26]: 72%; residual activity [27]: 71%; residual activity [28]: 100%; residual activity [29]: 76%; inhibition [30]: 17.2%; Ki ([31]; read-out: Ki): 4.34 µM; Ki ([31]; read-out: pKi (converted)): 4.17 µM; residual activity [32]: 100%; residual activity [33]: 100%; residual activity [34]: 77%; residual activity [35]: 93%; residual activity [36]: 100%; residual activity [37]: 86%; residual activity [38]: 79%; residual activity [39]: 86%
